Tested on: M. tuberculosis H37Rv
Assay: Mycobacterium tuberculosis H37Rv Inhibition Assay (Whole Cell Assay), MIC
Format: cell-based
Details: 144 h, M. tuberculosis H37Rv, Middlebrook 7H9 + ADC, 37° C. six days, resazurin readout, read-out: MIC_H37Rv

Compound | MIC [µM]
O=S(=O)(NCCO)c1ccc(-c2nnn(CC3CCC(F)(F)CC3)n2)cc1 [Example 11] | < 0.1
C[C@@H](c1ccc(F)cn1)n1nnc(-c2ccc(S(=O)(=O)NCCO)cc2)n1 [Example 111] | 1 to 5
O=S(=O)(NCCO)c1ccc(-c2nnn(Cc3ccncn3)n2)cc1 [Example 2, N-(2-hydroxyethyl)-4-(2-(pyrimidin-4-ylmethyl)-2H-tetrazol-5-yl)benzenesulfonamide] | 1 to 5
O=S(=O)(NCCO)c1ccc(-c2nnn(Cc3ccc(F)cn3)n2)c(Cl)c1 [Example 81, 3-chloro-4-(2-((5-fluoropyridin-2-yl)methyl)-2H-tetrazol-5-yl)-N-(2-hydroxyethyl)benzenesulfonamide] | < 0.1
COc1cc(-c2nnn(CC3CCC(F)(F)CC3)n2)ccc1S(=O)(=O)NCC(N)=O [Example 95, 2-((4-(2-((4,4-difluorocyclohexyl)methyl)-2H-tetrazol-5-yl)-2-methoxyphenyl)sulfonamido)acetamide] | 1 to 5
NC(=O)CNS(=O)(=O)c1ccc(-c2nnn(CC3CCCCO3)n2)cc1 (centres unmarked) [Example 96, 2-((4-(2-((tetrahydro-2H-pyran-2-yl)methyl)-2H-tetrazol-5-yl)phenyl)sulfonamido)acetamide] | < 0.1
O=S(=O)(NCCO)c1ccc(-c2nnn(CC3CCCOC3)n2)cc1 (centres unmarked) [Example 104, N-(2-hydroxyethyl)-4-(2-((tetrahydro-2H-pyran-3-yl)methyl)-2H-tetrazol-5-yl)benzenesulfonamide] | 5 to 10
N#Cc1ccc(Cn2cc(-c3ccc(S(=O)(=O)NCCO)cc3)nn2)cc1 [Example 66] | < 0.1
C[C@@H](O)CNS(=O)(=O)c1ccc(-c2nnn(Cc3ccc(F)cc3)n2)cc1 [Example 24] | < 0.1
O=S(=O)(NC(CO)CO)c1ccc(-c2nnn(Cc3ccc(F)cc3)n2)cc1 [Example 15] | 5 to 10
CCc1ccc(Cn2nnc(-c3ccc(S(=O)(=O)NCCO)cc3)n2)cc1 [Example 19] | 1 to 5
O=S(=O)(NCCO)c1ccc(-c2nnn(CC3CCCCO3)n2)cc1 (racemic) [Example 7, N-(2-hydroxyethyl)-4-(2-((tetrahydro-2H-pyran-2-yl)methyl)-2H-tetrazol-5-yl)benzenesulfonamide] | < 0.1
N#CCNS(=O)(=O)c1ccc(-c2cn(Cc3ccc(F)cn3)nn2)cc1 [Example 61] | < 0.1
O=S(=O)(NC(CO)CO)c1ccc(-c2nnn(Cc3ccncc3)n2)cc1 [Example 16] | 5 to 10
Cc1ccc(Cn2nnc(-c3ccc(S(=O)(=O)NC[C@@H](C)O)cc3)n2)nc1 [Example 27] | 10 to 25
COc1cnc(Cn2nnc(-c3ccc(S(=O)(=O)NCC#N)cc3)n2)cn1 [Example 92, N-(cyanomethyl)-4-(2-((5-methoxypyrazin-2-yl)methyl)-2H-tetrazol-5-yl)benzenesulfonamide] | 1 to 5
O=S(=O)(NCCO)c1ccc(-c2nnn(Cc3ccnnc3)n2)cc1 [Example 106, N-(2-hydroxyethyl)-4-(2-(pyridazin-4-ylmethyl)-2H-tetrazol-5-yl)benzenesulfonamide] | < 0.1
O=S(=O)(NCCO)c1ccc(-c2nnn(Cc3ccncc3)n2)cc1 [Example 33] | < 0.1
C[C@H](O)CNS(=O)(=O)c1ccc(-c2nnn(Cc3ccc(F)cc3)n2)cc1 [Example 14] | 1 to 5
COc1ccc(Cn2nnc(-c3ccc(S(=O)(=O)NCCO)cc3)n2)nc1 [Example 31] | 1 to 5
N#CCNS(=O)(=O)c1ccc(-c2nnn(Cc3cnccn3)n2)cc1 [Example 90, N-(cyanomethyl)-4-(2-(pyrazin-2-ylmethyl)-2H-tetrazol-5-yl)benzenesulfonamide] | < 0.1
CCNS(=O)(=O)c1ccc(-c2nnn(Cc3ccncc3)n2)cc1 [Example 5, N-ethyl-4-(2-(pyridin-4-ylmethyl)-2H-tetrazol-5-yl)benzenesulfonamide] | 10 to 25
Cc1cccc(Cn2nnc(-c3ccc(S(=O)(=O)NCCO)cc3)n2)n1 [Example 22] | 10 to 25

Reference: patent US11072591B2, “Tetrazole compounds and their use in the treatment of tuberculosis” (GLAXOSMITHKLINE INTELLECTUAL PROPERTY DEVELOPMENT LIMITED, priority 2017, dated 2021)
